Reference: patent publication US20220305000A1 (Cellworks Group Inc., priority 2021, published 2022)
Read-outs that look alike come from different tables or passages of the source.

Legend:
[1] = system: MPN Cell Lines (JAK2 and non JAK2 populations); experiment: Efficacy of MPN standard of care drugs tested on cell lines; type: cell-based; conditions: for sensitive in % of JAK2 Cell line populations: JAK2 cell lines; for resistance in % of non JAK2 population: non JAK2 cell lines
Source text: (§1) Efficacy comparison study of standard of care drugs in MPN Cell Lines and Patients is provided hereunder: […]

[2] = system: MPN patients (JAK2 and non JAK2 populations); experiment: Efficacy of standard of care drugs on patient cohort; conditions: for sensitive in % of JAK2 patient populations: JAK2 patients; for resistance in % of non JAK2 patient's population: non JAK2 patients
Source text: as §1

[3] = in vivo; cited from earlier work
[4] = cited from earlier work
[5] = system: patients with JAK2 aberration, Chromosome 8 / Chromosome 9 aberration; experiment: Analysis of Ruxolitinib non-responder cases in JAK2 aberration segment (efficacy score, chromosome 8/9 genes)
Source text: Next, screening was done for all patient's resistant to Ruxolitinib (JAKAFI®) but sensitive to the drug combination of CQ+M+S.

[6] = in vivo, cited from earlier work
[7] = system: Jakafi resistant JAK2 V617F harboring BaF3 cell-line; conditions: metformin 0.25 mM, 0.5 mM, 1 mM, 5 mM and 10 mM
Method: Relative growth of cells was assessed using MTT assay.
Viable cells % was assessed using MTT assay.
Viable cells % was assessed using MTT assay (FIG. 7a).

[8] = after meal, chloroquine 200 mg morning, metformin 1250 mg morning and evening, rosuvastatin 20 mg evening

Row | Compound | sensitive in % of JAK2 Cell line populations [1] [%] | resistance in % of non JAK2 population [1] [%] | sensitive in % of JAK2 patient populations [2] [%] | resistance in % of non JAK2 patient's population [2] [%] | MTD (maximum tolerated dose) [6] [mg/day] | Headache, All Grades [3] [%] | further results
1 | Nc1ncn([C@@H]2O[C@H](CO)[C@@H](O)[C@H]2O)c(=O)n1 [Azacytidine] | 50 | 50 | 34.16 | 74 |  |  | 
2 | CCN(CC)CCCC(C)Nc1ccnc2cc(Cl)ccc12 (stereo not shown) [Chloroquine, chloroquine] |  |  |  |  | 600 |  | grade ¾ toxicity [3]: rarely reported; Peak Concentration at Dosage [4, 8]: 1.18 µM; t½ ([4]; in vivo): 20 to 60 days; Response ([5]; Gene MCL1, Chromosome 8, Trisomy 8): Inclusion; MTD (maximum tolerated dose) ([6]; listed as chloroquine): about 600 mg/day
3 | Nc1ncn([C@H]2C[C@H](O)[C@@H](CO)O2)c(=O)n1 [Decitabine] | 50 | 50 | 34.16 | 74 |  |  | 
4 | NC(=O)NO [Hydroxyurea] | 0 | 100 | 1 | 100 |  |  | 
5 | Cc1ccc(NC(=O)c2ccc(CN3CCN(C)CC3)cc2)cc1Nc1nccc(-c2cccnc2)n1 [Imatinib] | 0 | 83.33 | 0.5 | 100 |  |  | 
6 | CN(C)C(=N)N=C(N)N [Metformin, metformin] |  |  |  |  | 2500 | 5.7 | Diarrhoea, All Grades [3]: 53%; Nausea, All Grades [3]: 25.5%; grade ¾ toxicity [3]: rarely reported; Peak Concentration at Dosage ([4]; in vivo): 5.8 µM; cell viability, viable cells % (MTT) [7]: steady decrease in cell viability; Response ([5]; Gene TGFBR1, Chromosome 9, Trisomy 9): Inclusion; MTD (maximum tolerated dose) ([6]; listed as metformin): about 2500 mg/day
7 | CC(C)c1nc(N(C)S(C)(=O)=O)nc(-c2ccc(F)cc2)c1/C=C/[C@@H](O)C[C@@H](O)CC(=O)O [Rosuvastatin, rosuvastatin] |  |  |  |  | 60 | 8.5 | Nausea, All Grades [3]: 6.3%; Peak Concentration at Dosage [4, 8]: 0.09 µM; MTD (maximum tolerated dose) ([6]; listed as rosuvastatin): about 60 mg/day
8 | N#CC[C@H](C1CCCC1)n1cc(-c2ncnc3[nH]ccc23)cn1 [Ruxolitinib, ruxolitinib] | 75 | 83.33 | 81.18 | 87.81 |  | 14.8 | Anemia, All Grades [3]: 96.1%; Neutropenia, All Grades [3]: 18.7%; Thrombocytopenia, All Grades [3]: 69.7%; patients with Anemia of grade 3 or more [3]: 40-45%
9 | O=C1CCC(N2C(=O)c3ccccc3C2=O)C(=O)N1 (stereo not shown) [Thalidomide] | 75 | 16.67 | 33.17 | 75.61 |  |  | 
